# Reference: patent US6582952B1 (priority 1997, dated 2003)
# Entries after “also recorded” stand apart in the source; their conditions may differ.
# Tested on: Bacillus licheniformis
structure (smiles),measurement,value
"Nc1n[nH]c(=O)[nH]1 [amine, 5-amino-1,2,4-triazole-3-one]",stability of the amine formed in the incubation mixture,does not undergo any subsequent transformation; also recorded: stable
